The text below walks through data of patent US7189856B2 (priority 2001, dated 2007).

Structures can show the parent of a compound that is named as a salt.

The target in this assay is T1, human SSTR2 receptors (Homo sapiens, UniProt P30874).
T1 construct: expressed in transfected cells; host or cells: CHO-K1 cells
The assay can be described thus: inhibition of [125I] Somatostatin binding to human SSTR2 receptors expressed in CHO-K1 cells. The protocol: FIG. 1 illustrates the logarithmic concentration-response curves for inhibition of [^125I] […] Test compounds were tested in duplicate at all concentrations. The average percent inhibition of duplicate was used for plotting the displacement curves, fitted by non-linear regression.
FIG. 2 illustrates the logarithmic concentration-response curves for inhibition of [^125I] […] Test compounds were tested in duplicate at all concentrations. The average percent inhibition of duplicate was used for plotting the displacement curves, fitted by non-linear regression.

T1 sequence (P30874 whole entry): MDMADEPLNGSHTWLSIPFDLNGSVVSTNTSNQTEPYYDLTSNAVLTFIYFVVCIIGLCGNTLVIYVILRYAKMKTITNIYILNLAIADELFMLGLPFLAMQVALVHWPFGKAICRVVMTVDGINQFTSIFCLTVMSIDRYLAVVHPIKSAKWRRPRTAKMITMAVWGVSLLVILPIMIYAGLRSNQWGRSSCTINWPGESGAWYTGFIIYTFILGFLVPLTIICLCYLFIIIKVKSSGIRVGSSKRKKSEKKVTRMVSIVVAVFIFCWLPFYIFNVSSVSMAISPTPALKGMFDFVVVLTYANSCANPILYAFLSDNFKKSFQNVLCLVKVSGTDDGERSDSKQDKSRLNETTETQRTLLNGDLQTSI

A word on the IC50: it is the concentration at which inhibition is half-maximal. The compound `CN(C)C(=O)c1cc(S(=O)(=O)N2C(=O)N(CC3CCC[C@@H](CN)C3)C(=O)[C@@H]2Cc2c[nH]c3ccccc23)ccc1Oc1ccc(O)c(Cl)c1` (single isomer, unassigned) [Example 15a HCl salt] gave an IC50 of 0.29 ± 0.0395 nM.
Compound `CN(C)C(=O)c1cc(S(=O)(=O)N2C(=O)N(C[C@@H]3CCC[C@H](CN)C3)C(=O)[C@@H]2Cc2c[nH]c3ccccc23)ccc1Oc1ccc(O)c(Cl)c1` (single isomer, unassigned) [Example 15b HCl salt] registered an IC50 of 1.3 ± 0.183 nM.
